The values below come from US20230122911A1, “FORMULATIONS OF ENZALUTAMIDE” (Astellas Pharma Inc., priority 2012, published 2023).

Molecules are shown by their SMILES.

A short description of series [1]: Relative bioavailability of amorphous drug and spray-dried dispersions in rats (Example 12). It is filed as in vivo. The note with it: oral gavage 20 mg/kg, mean ± standard deviation. The method, then: Five groups of jugular vein-cannulated CD® rats (n=6 per group) were dosed five enzalutamide formulations by oral gavage, at a dose of 20 mg/kg, in a volume of 2 ml/kg. Blood samples were obtained at 1, 3, 6, 12, 24, 36, 48, 60, and 72 hr post-dose.
The analytes, enzalutamide. MDPC0002, and MDPC0001 and internal standards (IS), N-^13CD3-enzalutamide, MDPC0002-^13CD3, and MDPC0001-^13CD3 were extracted from […], of rat plasma by a liquid-liquid extraction procedure. Internal standard working solution (25.0 µL) was added to all wells except the matrix blank. A 25.0 µL-volume of acetonitrile was added all matrix blank samples. After adding 200 µL of 5% sodium bicarbonate in water buffer solution, the plate was vortexed for approximately 10 seconds. A Tomtec Quadra 96-well pipettor was used to add […] of methyl tert-butyl ether (MTBE) to all wells, mixed, and approximately 1.00 mL of the organic layer was transferred to a clean 96-well plate. The samples were evaporated under heated nitrogen and reconstituted with 250 µL of 0.1% formic acid in methanol/water (40:60. v/v). The plate was covered and gently vortexed for approximately 10 seconds. The extracts were chromatographed under reverse phase conditions on an ACE 5 C18 HPLC 5 µm, 2.1 x 30 mm column. The compounds were detected and quantified by tandem mass spectrometry in positive ion mode on an MDS Sciex API 3000 equipped with a Turbo IONSPRAY® probe. Calibration curves were obtained by performing a linear regression (weighted ⅟x^2) of the data from the calibration standards.
Plasma enzalutamide concentration vs. time curves were prepared, and values for the following parameters were determined. Cmax max is the highest enzalutamide concentration observed for each rat. Tmax is the time that Cmax is first achieved. AUC0-72 is the area under the plasma enzalutamide concentration vs. time plot out to 72 hr post-dosing.

Series [2] can be described thus: Membrane-permeation (MP) dissolution test. It counts as in vitro ADME. The method, then: The membrane permeability test described in the Examples below is carried out as follows. A drug-permeable membrane is placed between feed and permeate reservoirs. A sufficient quantity of test composition is added to a feed test medium and placed in the feed reservoir, while a water immiscible organic solution, such as a 60/40 mixture of decanol/decane, is placed in the permeate reservoir. Samples are removed from the permeate reservoir and analyzed for the concentration of drug as a function of time. […] Further details of this membrane permeation test are disclosed in U.S. Pat. No 7,611,630 B2.
The MP-dissolution test, whose details are described above, measures a capability of low solubility drug formulations which is not measured in the microcentrifuge dissolution test utilized in Examples 4 and 7. This test mimics an aspect of the in vivo situation in the GI tract. In the in vivo situation, it is generally accepted that free drug in solution (i.e. individual drug molecules dissolved in the GI medium without association with formulation components) is the species which is absorbed across the gastrointestinal wall into the bloodstream. As free drug is absorbed, the formulation must be capable of supplying more free drug for absorption. The membrane permeation test measures the amount of drug which crosses a polymeric membrane (as a model of the GI wall) over time, and thus reflects the ability of the formulation to resupply free drug in solution to be further passively transported across the polymeric membrane. In Table 8.1 below, Maximum Flux is the maximum observed rate of permeation across the polymeric membrane, based on the slope of the absorption curve over any period within the 240 minute duration of the experiment, normalized for membrane area. Total drug recovery is the % of the initial drug dose which has crossed the membrane when the test ended at 240 minutes.

Setting [3] is: rat plasma, listed as Spray-dried amorphous drug.

As for `CNC(=O)c1ccc(N2C(=S)N(c3ccc(C#N)c(C(F)(F)F)c3)C(=O)C2(C)C)cc1F` [Control 1, 4-{3-[4-cyano-3-(trifluoromethyl)phenyl]-5,5-dimethyl-4-oxo-2-sulfanylideneimidazolidin-1-yl}-2-fluoro-N-methylbenzamide], in series [1] (CD, rat, plasma, po, 20 mg/kg, read-out: AUC 0-72), the AUC(0-t) was determined as 72700 ± 18400 ng·h/mL. In series [1] (rat plasma), the Cmax (usually the maximum level reached in the sampled fluid or tissue) worked out at 3530 ± 660 ng/mL. The Tmax (in general, the time at which the peak concentration occurs) in series [1] (rat plasma) stood at 6.05 ± 0.92 h. The “Maximum Flux” value in series [2] (Table 8.1, within 240 minute duration, normalized for membrane area) worked out at 0.4 µg/cm^2×min; in series [2] (Table 9.3), 0.4 µg/cm^2-min.

As for `CNC(=O)c1ccc(N2C(=S)N(c3ccc(C#N)c(C(F)(F)F)c3)C(=O)C2(C)C)cc1F` [Amorphous enzalutamide, 4-{3-[4-cyano-3-(trifluoromethyl)phenyl]-5,5-dimethyl-4-oxo-2-sulfanylideneimidazolidin-1-yl}-2-fluoro-N-methylbenzamide], in series [1] (setting [3]), the “AUC 0-72” value was determined as 121000 ± 16400 ng·h/mL, the Cmax is 7140 ± 970 ng/mL and the Tmax stood at 2.55 ± 0.57 h. In addition, the “Maximum Flux” value in series [2] (Table 8.1, within 240 minute duration, normalized for membrane area, listed as Amorphous (spray-dried) enzalutamide) amounted to 1.3 µg/cm^2×min.
